Experiment [1] deals with MCF7. The experiment is described as follows: Antiproliferative activity against ER-positive human MCF7 cells assessed as cell viability at 10 uM after 48 hrs by MTT assay. It is filed as functional, cell-based.
Experiment [2] concerns MCF7. The experiment is described as follows: Induction of apoptosis in ER-positive human MCF7 cells assessed as membrane blebbing at 10 uM after 24 hrs by DAPI staining based fluorescence microscopy. It is filed as functional, cell-based.
The target in another experiment is T1, Estrogen receptor (Homo sapiens, UniProt P03372).
T1 sequence (P03372 whole entry): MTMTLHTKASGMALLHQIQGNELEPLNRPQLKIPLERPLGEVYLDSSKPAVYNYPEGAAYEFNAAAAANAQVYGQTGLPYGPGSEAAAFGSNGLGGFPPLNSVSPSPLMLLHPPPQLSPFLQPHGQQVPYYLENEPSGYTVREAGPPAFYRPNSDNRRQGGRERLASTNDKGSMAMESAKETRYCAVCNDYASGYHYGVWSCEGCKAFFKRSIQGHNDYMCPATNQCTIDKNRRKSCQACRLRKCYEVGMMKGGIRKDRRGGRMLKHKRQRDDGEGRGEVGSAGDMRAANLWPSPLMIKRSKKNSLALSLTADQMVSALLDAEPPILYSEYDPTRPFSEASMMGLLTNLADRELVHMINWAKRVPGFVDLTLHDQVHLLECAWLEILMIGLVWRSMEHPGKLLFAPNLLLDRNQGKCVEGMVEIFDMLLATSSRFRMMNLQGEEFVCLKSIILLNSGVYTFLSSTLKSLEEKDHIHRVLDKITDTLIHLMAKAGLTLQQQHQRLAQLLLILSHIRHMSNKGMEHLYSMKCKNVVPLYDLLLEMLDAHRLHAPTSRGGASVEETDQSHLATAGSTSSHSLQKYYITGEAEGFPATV
The experiment is described as follows: Agonist activity at estrogen receptor in human MCF7 cells assessed as ERE-mediated transcriptional activity after 24 hrs by luciferase assay. It is filed as cell-based.

The test system of experiment [3] is MCF7. The experiment is described as follows: Induction of apoptosis in ER-positive human MCF7 cells assessed as condensed nuclei at 10 uM after 24 hrs by DAPI staining based fluorescence microscopy. It is filed as functional, cell-based.
Experiment [4] has as its target T2, Estrogen receptor (Homo sapiens) (UniProt P03372).
T2 sequence (whole entry): T1 sequence (P03372 whole entry)
In words: Agonist activity at estrogen receptor alpha in human MCF7 cells assessed as ER alpha phosphorylation at 10 uM after 24 hrs by immunoblotting analysis. The experiment is classed as cell-based.

The test system of experiment [5] is MCF7. The experiment is described as follows: Effect on cell cycle in ER-positive human MCF7 cells assessed as accumulation at subG1 phase at 10 uM after 48 hrs by propidium iodide staining based flow cytometry. It is filed as functional.
The target in experiment [6] is T2, Estrogen receptor (Homo sapiens). The experiment is described as follows: Agonist activity at estrogen receptor in human MCF7 cells assessed as GREB1 mRNA level at 10 uM after 24 hrs by RT-qPCR method. It is filed as cell-based.
Experiment [7] concerns MCF7. In words: Induction of apoptosis in ER-positive human MCF7 cells assessed as cell death at 10 uM after 48 hrs by annexin-V staining based flow cytometry. It is filed as functional.
For the next experiment, the system named is MDA-MB-231. In words: Antiproliferative activity against ER-negative human MDA-MB-231 cells assessed as cell viability after 48 hrs by MTT assay. It is filed as functional, cell-based.
The test system of experiment [8] is MCF7. In words: Antiproliferative activity against ER-positive human MCF7 cells assessed as cell viability after 48 hrs by MTT assay. It is filed as functional, cell-based.

Activity calls are given as the source filed them. The rule behind the calls is not given here.

Regarding `C=CCCCON=C(c1ccc(O)cc1)c1ccc(O)cc1`, the outcome (with MCF7 [1]; in the experiment on MCF7 [2]; with MCF7 [3]; in experiment [4]; in the experiment on MCF7 [5]; in [6]) was Active. Moreover, the result in the experiment on MCF7 [7] was Active. Further, the EC50 at Estrogen receptor turned out to be 46 nM. Moreover, the Activity entry in the experiment on MDA-MB-231 and in the experiment with MCF7 [8] was “Dose-dependent effect” in each case.
With `CC(C)CCON=C(c1ccc(O)cc1)c1ccc(O)cc1`, the outcome (in the experiment with MCF7 [1]; in the experiment on MCF7 [2]; in the experiment on MCF7 [3]; in [4]; with MCF7 [5]; in [6]) was Active. Further, the outcome in the experiment on MCF7 [7] was Active. Further, the concentration for a half-maximal effect (EC50) at Estrogen receptor is 77 nM. The Activity result with MDA-MB-231 and with MCF7 [8] was “Dose-dependent effect” each time.
As to `CCCCON=C(c1ccc(O)cc1)c1ccc(O)cc1`, the outcome (in the experiment with MCF7 [1]; in the experiment with MCF7 [2]; in the experiment with MCF7 [3]; in [4]; in the experiment on MCF7 [5]; in experiment [6]) was Active. For the same molecule, the result with MCF7 [7] was Active. For the same molecule, the half-maximal effective concentration (EC50) at Estrogen receptor came to 75 nM. Further, the Activity result with MDA-MB-231 and in the experiment with MCF7 [8] was “Dose-dependent effect” in each case.

Source of the values: ChEMBL document CHEMBL3784992, “Identification of novel estrogen receptor (ER) agonists that have additional and complementary anti-cancer activities via ER-independent mechanism” (Bioorg Med Chem Lett, 2016).
